The values that follow come from patent US20160280699A1, “SUBSTITUTED PHENYLALANINE DERIVATIVES” (BAYER PHARMA AKTIENGESELLSCHAFT, priority 2013, published 2016).

Structures can show the parent of a compound that is named as a salt.

One assay has as its target T1, human factor XIa (Homo sapiens, UniProt P03951).
T1 construct: purchased Kordia
The assay can be described thus: Measurement of FXIa inhibition (fluorogenic peptide substrate Boc-Glu(OBzl)-Ala-Arg-AMC). In kind it is biochemical. Particulars: factor XIa from Kordia, 15 min preincubation, 30 min at 22° C., fluorescence. How it is done: The factor XIa inhibition of the substances according to the invention is determined using a biochemical test system which utilizes the reaction of a peptidic factor XIa substrate to determine the enzymatic activity of human factor XIa. Here, factor XIa cleaves from the peptic factor XIa substrate the C-terminal aminomethylcoumarin (AMC), the fluorescence of which is measured. The determinations are carried out in microtitre plates.
Test substances are dissolved in dimethyl sulphoxide and serially diluted in dimethyl sulphoxide (3000 μM to 0.0078 μM; resulting final concentrations in the test: 50 μM to 0.00013 μM). In each case 1 μl of the diluted substance solutions is placed into the wells of white microtitre plates from Greiner (384 wells). Subsequently, the following are added successively: 20 μl of assay buffer (50 mmol/l Tris buffer pH 7.4; 100 mmol/l sodium chloride; 5 mmol/l calcium chloride; 0.1% bovine serum albumin) and 20 μl of factor XIa from Kordia (0.45 nM in assay buffer). After 15 min of incubation, the enzyme reaction is started by addition of 20 μl of the factor XIa substrate Boc-Glu(OBzl)-Ala-Arg-AMC dissolved in assay buffer (10 μM in assay buffer) from Bachem, the mixture is incubated at room temperature (22° C.) for 30 min and fluorescence is then measured (excitation: 360 nm, emission: 460 nm). The measured emissions of the test batches with test substance are compared to those of control batches without test substance (only dimethyl sulphoxide instead of test substance in dimethyl sulphoxide), and IC50 values are calculated from the concentration/activity relationships.

The test system of the next assay is human and animal plasma. The assay can be described thus: Determination of anticoagulatory activity: activated partial thromboplastin time (aPTT) in plasma. In kind it is biochemical. Particulars: concentration of test substance which brings about a 1.5-fold extension of the aPTT, 37° C., C.K. Prest kit. How it is done:
The anticoagulatory activity of the test substances is determined in vitro in human and animal plasma (for example mouse, rat, rabbit, pig and dog plasma). To this end, blood is drawn off in a mixing ratio of sodium citrate/blood of 1:9 using a 0.11 molar sodium citrate solution as receiver. Immediately after the blood has been drawn off, it is mixed thoroughly and centrifuged at about 4000 g for 15 minutes. The supernatant is pipetted off.
The activated partial thromboplastin time (aPTT) is determined in the presence of varying concentrations of test substance or the corresponding solvent using a commercial test kit (C.K. Prest from Diagnostica Stago). The test compounds are incubated with the plasma and the PTT reagent (cephalin, kaolin) at 37° C. for 3 minutes. Coagulation is then started by addition of a 25 mM aqueous calcium chloride solution, and the time when coagulation occurs is determined. The concentration of test substance which brings about a 1.5-fold extension of the aPTT is determined Activity data from this test are listed in Table B below: […]

T1 sequence (P03951 388-625 limits assumed): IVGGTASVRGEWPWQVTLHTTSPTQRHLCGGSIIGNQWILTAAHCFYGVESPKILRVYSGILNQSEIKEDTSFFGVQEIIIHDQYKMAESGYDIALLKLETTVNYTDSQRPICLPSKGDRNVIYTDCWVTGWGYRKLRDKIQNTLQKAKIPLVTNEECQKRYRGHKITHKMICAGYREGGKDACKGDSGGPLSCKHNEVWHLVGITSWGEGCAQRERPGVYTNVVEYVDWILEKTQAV
T1 sequence (P03951 19-387 partner limits assumed): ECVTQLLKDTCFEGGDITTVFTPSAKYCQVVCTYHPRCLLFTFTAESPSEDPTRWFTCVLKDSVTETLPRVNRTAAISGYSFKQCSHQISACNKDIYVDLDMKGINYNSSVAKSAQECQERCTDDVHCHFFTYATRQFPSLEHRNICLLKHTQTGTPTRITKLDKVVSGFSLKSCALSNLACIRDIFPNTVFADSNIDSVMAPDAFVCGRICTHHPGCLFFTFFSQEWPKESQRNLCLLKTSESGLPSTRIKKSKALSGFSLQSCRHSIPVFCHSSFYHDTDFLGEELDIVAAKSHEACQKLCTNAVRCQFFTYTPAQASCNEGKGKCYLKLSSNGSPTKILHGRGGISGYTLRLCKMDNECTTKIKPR

`NC[C@H]1CC[C@H](C(=O)N[C@@H](Cc2ccc(-c3ccc(NCCN4CCOCC4)nc3)cc2)C(=O)Nc2ccc(-c3nn[nH]n3)cc2)CC1` [Example 16, N-alpha-{[trans-4-(Aminomethyl)cyclohexyl]carbonyl}-4-(6-{[2-(morpholin-4-yl)ethyl]amino}pyridin-3-yl)-N-[4-(2H-tetrazol-5-yl)phenyl]-L-phenylalaninamide hydrochloride] gave an IC50 on human factor XIa of 13 nM. In the assay with human and animal plasma, the “aPTT” value turned out to be 0.33 µmol/L.

Consider `NC[C@H]1CC[C@H](C(=O)N[C@@H](Cc2ccc(-c3ccc(C(F)(F)F)nc3)cc2)C(=O)Nc2ccc(-c3nn[nH]n3)cc2)CC1` [Example 18, N-alpha-{[trans-4-(Aminomethyl)cyclohexyl]carbonyl}-N-[4-(2H-tetrazol-5-yl)phenyl]-4-[6-(trifluoromethyl)pyridin-3-yl]-L-phenylalaninamide hydrochloride], for which half-maximal inhibition against human factor XIa (IC50) was put at 2.7 nM. The “aPTT” value in the assay with human and animal plasma came to 0.33 µmol/L.

With `CN(C)CCCOc1ccc(-c2ccc(C[C@H](NC(=O)[C@H]3CC[C@H](CN)CC3)C(=O)Nc3ccc(-c4noc(=O)[nH]4)cc3)cc2)cn1` [Example 19, N-alpha-{[trans-4-(Aminomethyl)cyclohexyl]carbonyl}-4-{6-[3-(dimethylamino)propoxy]pyridin-3-yl}-N-[4-(5-oxo-4,5-dihydro-1,2,4-oxadiazol-3-yl)phenyl]-L-phenylalaninamide hydrochloride], the IC50 against human factor XIa was 16 nM. In addition, the “aPTT” value in the assay with human and animal plasma stood at 0.17 µmol/L.

`COc1cnccc1-c1ccc(C[C@H](NC(=O)[C@H]2CC[C@H](CN)CC2)C(=O)Nc2ccc(-c3nn[nH]n3)cc2)cc1` [Example 20, N-alpha-{[trans-4-(Aminomethyl)cyclohexyl]carbonyl}-4-(3-methoxypyridin-4-yl)-N-[4-(2H-tetrazol-5-yl)phenyl]-L-phenylalaninamide hydrochloride] registered an IC50 against human factor XIa of 3.8 nM. The “aPTT” value in the assay on human and animal plasma was determined as 0.22 µmol/L.

Take `COc1ccc(-c2ccc(C[C@H](NC(=O)[C@H]3CC[C@H](CN)CC3)C(=O)Nc3ccc(-c4nn[nH]n4)cc3)cc2)c(C)n1` [Example 21, N-alpha-{[trans-4-(Aminomethyl)cyclohexyl]carbonyl}-4-(6-methoxy-2-methylpyridin-3-yl)-N-[4-(2H-tetrazol-5-yl)phenyl]-L-phenylalaninamide hydrochloride]: the half-inhibitory concentration (IC50) on human factor XIa is 1.3 nM. Further, the “aPTT” value with human and animal plasma was 0.27 µmol/L.

`CN(C)c1ncc(-c2ccc(C[C@H](NC(=O)[C@H]3CC[C@H](CN)CC3)C(=O)Nc3ccc(-c4nn[nH]n4)cc3)cc2)c(OCc2ccccc2)n1` [Example 22, N-alpha-{[trans-4-(Aminomethyl)cyclohexyl]carbonyl}-4-[4-(benzyloxy)-2-(dimethylamino)-pyrimidin-5-yl]-N-[4-(2H-tetrazol-5-yl)phenyl]-L-phenylalaninamide hydrochloride] yielded an IC50 at human factor XIa of 6.1 nM. In addition, the “aPTT” value with human and animal plasma was 0.27 µmol/L.

As to `Cc1cnccc1-c1ccc(C[C@H](NC(=O)[C@H]2CC[C@H](CN)CC2)C(=O)Nc2ccc3c(=O)[nH][nH]c3c2)cc1` [Example 23, N-alpha-{[trans-4-(Aminomethyl)cyclohexyl]carbonyl}-4-(3-methylpyridin-4-yl)-N-(3-oxo-2,3-dihydro-1H-indazol-6-yl)-L-phenylalaninamide hydrochloride], the IC50 against human factor XIa came out at 3.6 nM. Besides, the “aPTT” value with human and animal plasma stood at 0.24 µmol/L.

`NC[C@H]1CC[C@H](C(=O)N[C@@H](Cc2ccc(-c3ccc(N4CCOCC4)nc3)cc2)C(=O)Nc2ccc3c(=O)[nH][nH]c3c2)CC1` [Example 24, N-alpha-{[trans-4-(Aminomethyl)cyclohexyl]carbonyl}-4-[6-(morpholin-4-yl)pyridin-3-yl]-N-(3-oxo-2,3-dihydro-1H-indazol-6-yl)-L-phenylalaninamide hydrochloride] returned a half-maximal inhibitory concentration (IC50) at human factor XIa of 3.1 nM. Further, the “aPTT” value in the assay with human and animal plasma amounted to 0.18 µmol/L.

In the case of `CN(C)c1ncc(-c2ccc(C[C@H](NC(=O)[C@H]3CC[C@H](CN)CC3)C(=O)Nc3ccc(-c4nn[nH]n4)cc3)cc2)cn1` [Example 25, N-alpha-{[trans-4-(Aminomethyl)cyclohexyl]carbonyl}-4-[2-(dimethylamino)pyrimidin-5-yl]-N-[4-(2H-tetrazol-5-yl)phenyl]-L-phenylalaninamide hydrochloride], the IC50 against human factor XIa stood at 8 nM. Besides, in the assay on human and animal plasma, the “aPTT” value turned out to be 0.29 µmol/L.

In turn, `NC[C@H]1CC[C@H](C(=O)N[C@@H](Cc2ccc(-c3cccnc3N)cc2)C(=O)Nc2ccc(-c3nn[nH]n3)cc2)CC1` [Example 26, N-alpha-{[trans-4-(Aminomethyl)cyclohexyl]carbonyl}-4-(2-aminopyridin-3-yl)-N-[4-(2H-tetrazol-5-yl)phenyl]-L-phenylalaninamide hydrochloride] yielded an IC50 against human factor XIa of 3.7 nM. In addition, the “aPTT” value in the assay on human and animal plasma stood at 0.19 µmol/L.

As to `Cc1ncccc1-c1ccc(C[C@H](NC(=O)[C@H]2CC[C@H](CN)CC2)C(=O)Nc2ccc3c(=O)[nH][nH]c3c2)cc1` [Example 27, N-alpha-{[trans-4-(Aminomethyl)cyclohexyl]carbonyl}-4-(2-methylpyridin-3-yl)-N-(3-oxo-2,3-dihydro-1H-indazol-6-yl)-L-phenylalaninamide hydrochloride], half-maximal inhibition at human factor XIa (IC50) required 5.6 nM. Besides, the “aPTT” value in the assay with human and animal plasma came out at 0.24 µmol/L.

Regarding `Cc1cc(N2CCOCC2)ncc1-c1ccc(C[C@H](NC(=O)[C@H]2CC[C@H](CN)CC2)C(=O)Nc2ccc(-c3nn[nH]n3)cc2)cc1` [Example 29, N-alpha-{[trans-4-(Aminomethyl)cyclohexyl]carbonyl}-4-[4-methyl-6-(morpholin-4-yl)pyridin-3-yl]-N-[4-(2H-tetrazol-5-yl)phenyl]-L-phenylalaninamide hydrochloride], half-maximal inhibition against human factor XIa (IC50) required 1.3 nM. For the same molecule, the “aPTT” value in the assay on human and animal plasma is 0.21 µmol/L.

`COc1ccc(-c2ccc(C[C@H](NC(=O)[C@H]3CC[C@H](CN)CC3)C(=O)Nc3ccc4c(=O)[nH][nH]c4c3)cc2)c(C)n1` [Example 30, N-alpha-{[trans-4-(Aminomethyl)cyclohexyl]carbonyl}-4-(6-methoxy-2-methylpyridin-3-yl)-N-(3-oxo-2,3-dihydro-1H-indazol-6-yl)-L-phenylalaninamide hydrochloride] displayed an IC50 against human factor XIa of 6.7 nM. For the same molecule, in the assay on human and animal plasma, the “aPTT” value was determined as 0.34 µmol/L.

Turning to `COc1nc(N2CCN(C)CC2)ncc1-c1ccc(C[C@H](NC(=O)[C@H]2CC[C@H](CN)CC2)C(=O)Nc2ccc(-c3nn[nH]n3)cc2)cc1` [Example 31, N-alpha-{[trans-4-(Aminomethyl)cyclohexyl]carbonyl}-4-[4-methoxy-2-(4-methylpiperazin-1-yl)pyrimidin-5-yl]-N-[4-(2H-tetrazol-5-yl)phenyl]-L-phenylalaninamide hydrochloride], on human factor XIa, the IC50 was determined as 15 nM. The “aPTT” value in the assay with human and animal plasma stood at 0.22 µmol/L.

In turn, `NC[C@H]1CC[C@H](C(=O)N[C@@H](Cc2ccc(-c3ccc(Oc4cccnc4)nc3)cc2)C(=O)Nc2ccc(-c3nn[nH]n3)cc2)CC1` [Example 32, N-alpha-{[trans-4-(Aminomethyl)cyclohexyl]carbonyl}-4-[6-(pyridin-3-yloxy)pyridin-3-yl]-N-[4-(2H-tetrazol-5-yl)phenyl]-L-phenylalaninamide hydrochloride] displayed a half-inhibitory concentration (IC50) at human factor XIa of 2.4 nM. The “aPTT” value in the assay on human and animal plasma was found to be 0.3 µmol/L.

Consider `NC[C@H]1CC[C@H](C(=O)N[C@@H](Cc2ccc(-c3ccnc(N4CCNCC4)c3)cc2)C(=O)Nc2ccc(-c3nn[nH]n3)cc2)CC1` [Example 33, N-alpha-{[trans-4-(Aminomethyl)cyclohexyl]carbonyl}-4-[2-(piperazin-1-yl)pyridin-4-yl]-N-[4-(2H-tetrazol-5-yl)phenyl]-L-phenylalaninamide hydrochloride], for which, on human factor XIa, the IC50 was found to be 20 nM. Moreover, in the assay on human and animal plasma, the “aPTT” value amounted to 0.29 µmol/L.

Molecule `NC[C@H]1CC[C@H](C(=O)N[C@@H](Cc2ccc(-c3ccc(N4CCOCC4)nc3)cc2)C(=O)Nc2ccc(-c3cc(=O)[nH][nH]3)cc2)CC1` [Example 34, N-alpha-{[trans-4-(Aminomethyl)cyclohexyl]carbonyl}-4-[6-(morpholin-4-yl)pyridin-3-yl]-N-[4-(5-oxo-2,5-dihydro-1H-pyrazol-3-yl)phenyl]-L-phenylalaninamide hydrochloride] showed a half-maximal inhibitory concentration (IC50) on human factor XIa of 5.4 nM. The “aPTT” value with human and animal plasma was found to be 0.14 µmol/L.

The IC50 is the concentration that inhibits the measured activity by half. A high value points to weaker potency.
